In US9333202B2, “Non-retinoid antagonists for treatment of age-related macular degeneration and stargardt disease” (THE TRUSTEES OF COLUMBIA UNIVERSITY IN THE CITY OF NEW YORK, priority 2012, dated 2016):
pIC50: −log10 of the molar value. “Also recorded” adds a separate entry of the source.

Key:
[1] = biological target: T1, human RBP4 (Homo sapiens, UniProt P02753); assay: Scintillation proximity (SPA) RBP4 binding assay; details: for pIC50: 10 nM 3H-retinol, 50 nM biotinylated RBP4, each value one experiment, read-out: IC50 in SPA-based RBP4 binding assay
T1 construct: Untagged human RBP4 purified from urine of tubular proteinuria patients; purchased Fitzgerald Industries International; host or cells: human urine (tubular proteinuria patients)
Protocol: Untagged human RBP4 purified from urine of tubular proteinuria patients was purchased from Fitzgerald Industries International. It was biotinylated using the EZ-Link Sulfo-NHS-LC-Biotinylation kit from Pierce following the manufacturer's recommendations. Binding experiments were performed in 96-well plates (OptiPlate, PerkinElmer) in a final assay volume of 100 μl per well in SPA buffer (1×PBS, pH 7.4, 1 mM EDTA, 0.1% BSA, 0.5% CHAPS). The reaction mix contained 10 nM ^3H-Retinol (48.7 Ci/mmol; PerkinElmer), 0.3 mg/well Streptavidin-PVT beads, 50 nM biotinylated RBP4 and a test compound. Nonspecific binding was determined in the presence of 20 μM of unlabeled retinol. The reaction mix was assembled in the dark under dim red light. The plates were sealed with clear tape (TopSeal-A: 96-well microplate, PerkinElmer), wrapped in the aluminum foil, and allowed to equilibrate 6 hours at room temperature followed by overnight incubation at +4° C. Radiocounts were measured using a TopCount NXT counter (Packard Instrument Company).

[2] = biological target: T2, RBP4-TTR interaction (Homo sapiens, UniProt P02753); assay: HTRF/TR-FRET assay for retinol-dependent RBP4-TTR interaction (1 μM retinol); assay type: biochemical; set-up: human RBP4 fragment (amino acids 19-201) was expressed in the Gold(DE3)pLysS E. coli strain; made in house; host or cells: E. coli Gold(DE3)pLysS (Stratagene), pMAL-c4x vector; details: for pIC50: in the presence of 1 μM retinol, each value one experiment, read-out: IC50 in HTRF-based retinol-dependent RBP4-TTR interaction assay
From the text: Bacterially expressed MBP-RBP4 and untagged TTR were used in this assay. For the use in the TR-FRET assay the maltose binding protein (MBP)-tagged human RBP4 fragment (amino acids 19-201) was expressed in the Gold(DE3)pLysS E. coli strain (Stratagene) using the […] vector. Following cell lysis, recombinant RBP4 was purified from the soluble fraction using the ACTA FPLC system (GE Healthcare) equipped with the 5-ml the MBP Trap HP column. Human untagged TTR was purchased from Calbiochem. Untagged TTR was labeled directly with Eu^3+ Cryptate-NHS using the HTRF Cryptate Labeling kit from CisBio following the manufacturer's recommendations. HTRF assay was performed in white low volume 384 well plates (Greiner-Bio) in a final assay volume of 16 μl per well. The reaction buffer contained 10 mM Tris-HCl pH 7.5, 1 mM DTT, 0.05% NP-40, 0.05% Prionex, 6% glycerol, and 400 mM KF. Each reaction contained 60 nM MBP-RBP4 and 2 nM TTR-Eu along with 26.7 nM of anti-MBP antibody conjugated with d2 (Cisbio). Titration of test compounds in this assay was conducted in the presence of 1 μM retinol. All reactions were assembled in the dark under dim red light and incubated overnight at +4° C. wrapped in aluminum foil. TR-FRET signal was measured in the SpectraMax M5e Multimode Plate Reader (Molecular Device). Fluorescence was excited at 337 nm and two readings per well were taken: Reading 1 for time-gated energy transfer from Eu(K) to d2 (337 nm excitation, 668 nm emission, counting delay 75 microseconds, counting window 100 microseconds) and Reading 2 for Eu(K) time-gated fluorescence (337 nm excitation, 620 nm emission, counting delay 400 microseconds, counting window 400 microseconds). The TR-FRET signal was expressed as the ratio of fluorescence intensity: Flu665/Flu620×10,000.

[3] = biological target: T2, RBP4-TTR interaction; assay: TR-FRET (HTRF) assay for antagonists of retinol-induced RBP4-TTR interaction, agonist and antagonist mode (Example 2); assay type: biochemical; set-up: made in house; host or cells: E. coli; details: agonist mode, dose titration
From the text: TR-FRET (Time-Resolved Fluorescence Resonance Energy Transfer) is an assay format that can be used in characterization of compounds affecting protein-protein interactions (31-33). […] In the presence of retinol, RBP4-TTR interaction induces FRET that can be registered as increased ratio of […] fluorescence signals. Binding of a desired RBP4 antagonist displaces retinol and induces hindrance for RBP4-TTR interaction resulting in the decreased FRET signal (FIG. 7).
The assay was developed using E. coli-expressed MBP-tagged RBP4 and commercially available TTR labeled directly with Eu3+ cryptate. In addition to MBP-RBP4 and Eu3+ (K)-TTR, a detector reagent anti-MBP-d2 was present in the mix. The assay was first optimized in the agonist mode; sensitivity and dynamic range of the assay was […] in respect to RBP4, TTR and detection reagent concentrations.

SMILES | Binding to RBP4 in vitro (in words) [1] | pIC50 [1] | Antagonism of RBP4-TTR interaction in vitro (in words) [2] | pIC50 [2] | Induction of RBP4-TTR interaction [3]
O=C(O)c1cnccc1NC(=O)N1CCC(c2ccccc2C(F)(F)F)CC1 [Compound 65] | bind to RBP4 | 7.70 | antagonize retinol-dependent RBP4-TTR interaction; also recorded: antagonize RBP4-TTR interaction in vitro at biologically significant concentrations | 6.70 | 
O=C(c1c[nH]cn1)N1CCC(c2ccccc2C(F)(F)F)CC1 [Compound 48] | bind to RBP4 | 8.25 | antagonize retinol-dependent RBP4-TTR interaction | 6.97 | 
CC1=C(/C=C/C(C)=C/C=C/C(C)=C/C(=O)Nc2ccc(O)cc2)C(C)(C)CCC1 [fenretinide, N-(4-hydroxy-phenyl)retinamide] |  |  |  |  | did not induce RBP4-TTR interaction
